In patent US11345708B2, “Substituted imidazo[1,2-a]imidazoles as modulators of metabotropic glutamate receptor 4 activity” (Hoffmann-La Roche Inc., priority 2017, dated 2022):

Biological target: T1, human mGlu4 receptor (Homo sapiens, UniProt Q14833)
T1 construct: expressed in transfected cells; host or cells: HEK-293 (monoclonal, stably transfected)
Assay: Ca2+ mobilization in vitro assay on recombinant human mGlu4 expressed in HEK293 cells
Assay type: cell-based
Settings: HEK-293 cells stably expressing human mGlu4; L-AP4 added at EC20; Fluo-4 fluorescence; read-out: EC50 (uM) mGlu4 PAM
Procedure: Determination of EC50 Values Using a Ca2+ Mobilization In Vitro Assay on Recombinant Human mGlu4 Expressed in HEK293 Cells:
A monoclonal HEK-293 cell line stably transfected with a cDNA encoding for the human mGlu4 receptor was generated; for the work with mGlu4 Positive Allosteric Modulators (PAMs), a cell line with low receptor expression levels and low constitutive receptor activity was selected to allow the differentiation of agonistic versus PAM activity. Cells were cultured according to standard protocols (Freshney, 2000) in Dulbecco's Modified Eagle Medium with high glucose supplemented with 1 mM glutamine, 10% (vol/vol) heat-inactivated bovine calf serum, Penicillin/Streptomycin, 50 μg/ml hygromycin and 15 μg/ml blasticidin (all cell culture reagents and antibiotics from Invitrogen, Basel, Switzerland).
About 24 hrs before an experiment, 5×10^4 cells/well were seeded in poly-D-lysine coated, black/clear-bottomed 96-well plates. The cells were loaded with 2.5 μM Fluo-4 AM in loading buffer (1×HBSS, 20 mM HEPES) for 1 hr at 37° C. and washed five times with loading buffer. The cells were transferred into a Functional Drug Screening System 7000 (Hamamatsu, Paris, France), and 11 half logarithmic serial dilutions of test compound at 37° C. were added and the cells were incubated for 10-30 min. with on-line recording of fluorescence. Following this pre-incubation step, the agonist (2S)-2-amino-4-phosphonobutanoic acid (L-AP4) was added to the cells at a concentration corresponding to EC20 with on-line recording of fluorescence; in order to account for day-to-day variations in the responsiveness of cells, the EC20 of L-AP4 was determined immediately ahead of each experiment by recording of a full dose-response curve of L-AP4.
Responses were measured as peak increase in fluorescence minus basal (i.e. fluorescence without addition of L-AP4), normalized to the maximal stimulatory effect obtained with saturating concentrations of L-AP4. Graphs were plotted with the % maximal stimulatory using XLfit, a curve fitting program that iteratively plots the data using Levenburg Marquardt algorithm. The single site competition analysis equation used was y=A+((B−A)/(1+((x/C)D))), where y is the % maximal stimulatory effect, A is the minimum y, B is the maximum y, C is the EC50, x is the log 10 of the concentration of the competing compound and D is the slope of the curve (the Hill Coefficient). From these curves the EC50 (drug concentration at which 50% of the maximal receptor activation was achieved), the Hill coefficient as well as the maximal response in % of the maximal stimulatory effect obtained with saturating concentrations of L-AP4 were calculated (see Fig. 1).
A depression of the signal observed after addition of the EC20 concentration of L-AP4 was indicative of an inhibitory activity of the test compound.

T1 sequence (Q14833 33-912): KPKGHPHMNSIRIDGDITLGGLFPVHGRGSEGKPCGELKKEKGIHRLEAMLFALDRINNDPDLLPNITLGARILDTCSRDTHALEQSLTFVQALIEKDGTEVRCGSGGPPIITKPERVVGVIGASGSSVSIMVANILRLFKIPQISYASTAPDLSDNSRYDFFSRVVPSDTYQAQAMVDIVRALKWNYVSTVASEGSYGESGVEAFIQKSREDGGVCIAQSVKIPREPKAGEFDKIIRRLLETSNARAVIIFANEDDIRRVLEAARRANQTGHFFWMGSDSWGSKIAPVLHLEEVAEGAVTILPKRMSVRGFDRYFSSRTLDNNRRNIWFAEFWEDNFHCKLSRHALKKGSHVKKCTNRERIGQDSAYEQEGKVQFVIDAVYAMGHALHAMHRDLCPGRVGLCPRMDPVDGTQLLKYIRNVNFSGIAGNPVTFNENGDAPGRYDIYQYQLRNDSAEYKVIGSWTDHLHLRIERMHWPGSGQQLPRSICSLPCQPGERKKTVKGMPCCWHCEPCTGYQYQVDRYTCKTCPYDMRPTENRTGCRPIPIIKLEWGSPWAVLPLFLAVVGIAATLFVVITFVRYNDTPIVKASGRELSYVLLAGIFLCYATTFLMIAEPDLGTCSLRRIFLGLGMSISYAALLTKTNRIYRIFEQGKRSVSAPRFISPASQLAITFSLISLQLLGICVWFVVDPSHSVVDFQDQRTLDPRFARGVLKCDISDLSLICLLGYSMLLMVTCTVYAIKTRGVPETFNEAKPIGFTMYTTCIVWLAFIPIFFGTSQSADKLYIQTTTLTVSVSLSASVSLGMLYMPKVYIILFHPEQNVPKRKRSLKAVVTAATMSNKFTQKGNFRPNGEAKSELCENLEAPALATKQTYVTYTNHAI

CC(F)(F)c1ccc(-c2cc(F)c(N3C(=O)C4(CC4)n4ccnc43)c(F)c2)cc1 [Example 6, 1′-(4′-(1,1-difluoroethyl)-3,5-difluoro-[1,1′-biphenyl]-4-yl)spiro[cyclopropane-1,3′-imidazo[1,2-a]imidazol]-2′(1′H)-one]
EC50: 0.383 µM

O=C(Nc1ccccn1)c1cc(F)c(N2C(=O)C3(CC3)n3c(-c4ccccn4)cnc32)c(F)c1 [Example 22, 3,5-difluoro-4-[6′-oxo-3′-(2-pyridyl)spiro[cyclopropane-1,5′-imidazo[1,2-a]imidazole]-7′-yl]-N-(2-pyridyl)benzamide]
EC50: 0.61 µM

O=C(Nc1cc(F)c(N2C(=O)C3(CC3)n3ccnc32)c(F)c1)c1ccccn1 [Example 7, N-[3,5-difluoro-4-(6′-oxospiro[cyclopropane-1,5′-imidazo[1,2-a]imidazole]-7′-yl)phenyl]pyridine-2-carboxamide]
EC50: 0.541 µM

Cn1cnc(-c2cnc3n2C2(CC2)C(=O)N3c2c(F)cc(C#Cc3ccccc3)cc2F)c1 [Example 14, 7′-[2,6-difluoro-4-(2-phenylethynyl)phenyl]-3′-(1-methylimidazol-4-yl)spiro[cyclopropane-1,5′-imidazo[1,2-a]imidazole]-6′-one]
EC50: 0.12 µM

Cn1nccc1-c1cnc2n1C1(CC1)C(=O)N2c1c(F)cc(C#Cc2cccnc2)cc1F [Example 46, 7′-[2,6-difluoro-4-[2-(3-pyridyl)ethynyl]phenyl]-3′-(2-methylpyrazol-3-yl)spiro[cyclopropane-1,5′-imidazo[1,2-a]imidazole]-6′-one]
EC50: 0.673 µM

CC(C)(C)c1cnn(-c2cc(F)c(N3C(=O)C4(CC4)n4c(-c5ccncn5)cnc43)c(F)c2)c1 [Example 15, 7′-[4-(4-tert-butylpyrazol-1-yl)-2,6-difluoro-phenyl]-3′-pyrimidin-4-yl-spiro[cyclopropane-1,5′-imidazo[1,2-a]imidazole]-6′-one]
EC50: 0.232 µM

O=C1N(c2c(F)cc(C#Cc3ccccc3)cc2F)c2ncc(-c3cncnc3)n2C12CC2 [Example 38, 3-[2,6-Difluoro-4-(2-phenylethynyl)phenyl]-6-(pyrimidin-5-yl)-2,3-dihydrospiro[[1,3]diazolo[1,2-a]imidazole-1,1′-cyclopropane]-2-one]
EC50: 0.331 µM

7′-[2,6-difluoro-4-[2-(3-pyridyl)ethynyl]phenyl]-3′-(2-methylpyrazol-3-yl)spiro[cyclopropane-1,5′-imidazo[1,2-a]imidazole]-6′-one [Example 30]
EC50: 0.143 µM

O=C1N(c2c(F)cc(C#Cc3ccccc3)cc2F)c2ncc(-c3ccccn3)n2C12CC2 [Example 12, 3-[2,6-Difluoro-4-(2-phenylethynyl)phenyl]-6-(pyridin-2-yl)-2,3-dihydrospiro[[1,3]diazolo[1,2-a]imidazole-1,1′-cyclopropane]-2-one]
EC50: 0.076 µM

CC1(C)C(=O)N(c2c(F)cc(C#Cc3ccccc3)cc2Cl)c2ncc(I)n21 [Example 10, 1-(2-chloro-6-fluoro-4-(phenylethynyl)phenyl)-5-iodo-3,3-dimethyl-1H-imidazo[1,2-a]imidazol-2(3H)-one]
EC50: 0.371 µM

O=C1N(c2c(F)cc(C#Cc3cccnc3)cc2F)c2ncc(-c3ccncn3)n2C12CC2 [Example 16, 7′-[2,6-difluoro-4-[2-(3-pyridyl)ethynyl]phenyl]-3′-pyrimidin-4-yl-spiro[cyclopropane-1,5′-imidazo[1,2-a]imidazole]-6′-one]
EC50: 0.237 µM

O=C(Nc1cc(F)c(N2C(=O)C3(CC3)n3c(C4(O)COC4)cnc32)c(F)c1)c1ccccn1 [Example 51, N-[3,5-difluoro-4-[3′-(3-hydroxyoxetan-3-yl)-6′-oxo-spiro[cyclopropane-1,5′-imidazo[1,2-a]imidazole]-7′-yl]phenyl]pyridine-2-carboxamide]
EC50: 0.363 µM

O=C1N(c2c(F)cc(C#Cc3cccnc3)cc2F)c2ncc(-c3cc[nH]n3)n2C12CC2 [Example 28, 7′-[2,6-difluoro-4-[2-(3-pyridyl)ethynyl]phenyl]-3′-(1H-pyrazol-3-yl)spiro[cyclopropane-1,5′-imidazo[1,2-a]imidazole]-6′-one]
EC50: 0.135 µM

Cn1cc(-c2cnc3n2C2(CC2)C(=O)N3c2c(F)cc(-c3ccc(C(C)(F)F)cc3)cc2F)cn1 [Example 35, 1′-(4′-(1,1-difluoroethyl)-3,5-difluoro-[1,1′-biphenyl]-4-yl)-5′-(1-methyl-1H-pyrazol-4-yl)spiro[cyclopropane-1,3′-imidazo[1,2-a]imidazol]-2′(1′H)-one]
EC50: 0.227 µM

O=C(Nc1cc(F)c(N2C(=O)C3(CC3)n3c(-c4cc[nH]n4)cnc32)c(F)c1)c1ccccn1 [Example 43, N-[3,5-difluoro-4-[6′-oxo-3′-(1H-pyrazol-3-yl)spiro[cyclopropane-1,5′-imidazo[1,2-a]imidazole]-7′-yl]phenyl]pyridine-2-carboxamide]
EC50: 0.015 µM

O=C1N(c2c(F)cc(C#Cc3ccccc3)cc2F)c2ncc(C3(O)COC3)n2C12CC2 [Example 50, 7′-[2,6-difluoro-4-(2-phenylethynyl)phenyl]-3′-(3-hydroxyoxetan-3-yl)spiro[cyclopropane-1,5′-imidazo[1,2-a]imidazole]-6′-one]
EC50: 0.322 µM

CC(O)c1cnc2n1C1(CC1)C(=O)N2c1c(F)cc(NC(=O)c2ccccn2)cc1F (centres unmarked) [Example 57, N-[3,5-difluoro-4-[3′-(1-hydroxyethyl)-6′-oxo-spiro[cyclopropane-1,5′-imidazo[1,2-a]imidazole]-7′-yl]phenyl]pyridine-2-carboxamide]
EC50: 0.572 µM

Cc1cnc2n1C1(CC1)C(=O)N2c1c(F)cc(C#Cc2cccnc2)cc1F [Example 49, 7′-[2,6-difluoro-4-[2-(3-pyridyl)ethynyl]phenyl]-3′-methyl-spiro[cyclopropane-1,5′-imidazo[1,2-a]imidazole]-6′-one]
EC50: 0.829 µM

CC1C(=O)N(c2c(F)cc(C#Cc3ccccc3)cc2F)c2nccn21 (single isomer, unassigned; enantiomer 1) [Example 3, 1-(2,6-difluoro-4-(phenylethynyl)phenyl)-3-methyl-1H-imidazo[1,2-a]imidazol-2(3H)-one (enantiomer 1)]
EC50: 0.453 µM

O=C(Nc1cc(F)c(N2C(=O)C3(CC3)n3c(-c4ccccn4)cnc32)c(F)c1)c1ccccn1 [Example 11, N-[3,5-difluoro-4-[6′-oxo-3′-(2-pyridyl)spiro[cyclopropane-1,5′-imidazo[1,2-a]imidazole]-7′-yl]phenyl]pyridine-2-carboxamide]
EC50: 0.059 µM

CC(O)c1cnc2n1C1(CC1)C(=O)N2c1c(F)cc(-n2cc(C(C)(C)C)cn2)cc1F (centres unmarked) [Example 58, 7′-[4-(4-tert-butylpyrazol-1-yl)-2,6-difluoro-phenyl]-3′-(1-hydroxyethyl)spiro[cyclopropane-1,5′-imidazo[1,2-a]imidazole]-6′-one]
EC50: 0.842 µM

CC1C(=O)N(c2c(F)cc(C#Cc3ccccc3)cc2F)c2nccn21 (single isomer, unassigned; enantiomer 2) [Example 4, 1-(2,6-difluoro-4-(phenylethynyl)phenyl)-3-methyl-1H-imidazo[1,2-a]imidazol-2(3H)-one (enantiomer 2)]
EC50: 0.758 µM

O=C1N(c2c(F)cc(C#Cc3ccccc3)cc2F)c2nccn2C12CC2 [Example 1, 3-[2,6-Difluoro-4-(2-phenylethynyl)phenyl]-2,3-dihydrospiro[[1,3]diazolo[1,2-a]imidazole-1,1′-cyclopropane]-2-one]
EC50: 0.178 µM

O=C1N(c2c(F)cc(C#Cc3ccccc3)cc2F)c2ncc(-c3cn[nH]c3)n2C12CC2 [Example 41, 3-[2,6-Difluoro-4-(2-phenylethynyl)phenyl]-6-(1H-pyrazol-4-yl)-2,3-dihydrospiro[[1,3]diazolo[1,2-a]imidazole-1,1′-cyclopropane]-2-one]
EC50: 0.238 µM

Cn1nccc1-c1cnc2n1C1(CC1)C(=O)N2c1c(F)cc(C#Cc2ccccc2)cc1F [Example 44, 7′-[2,6-difluoro-4-(2-phenylethynyl)phenyl]-3′-(2-methylpyrazol-3-yl)spiro[cyclopropane-1,5′-imidazo[1,2-a]imidazole]-6′-one]
EC50: 0.422 µM

CC1(C)C(=O)N(c2c(F)cc(C#Cc3ccccc3)cc2F)c2ncc(-c3ccccc3)n21 [Example 31, 1-(2,6-difluoro-4-(phenylethynyl)phenyl)-3,3-dimethyl-5-phenyl-1H-imidazo[1,2-a]imidazol-2(3H)-one]
EC50: 0.243 µM
